# Patent US11622991B2, “Protocol for treatment of lupus nephritis” (Aurinia Pharmaceuticals Inc., priority 2017, dated 2023)
# Columns and labels:
# Assay type in all cases: in vivo, human
# lupus nephritis [1] = experiment: Predictability of week 48 partial remission from early C3 normalization (Table 10)
# Excerpt: (§1) PR is defined as at least 50% reduction in proteinuria (i.e. UPCR).
# (§2) Sensitivity is defined as the probability that a subject showing PR at 48 weeks would have shown a favorable result with regard to the marker at the designated early time point. In the tables below, this is the ratio of the number of subjects with favorable marker results (early drop or normalization) to the total subjects with 48 week PR.
# (§3) Specificity is defined as the probability that a subject not showing PR at 48 weeks would have shown an unfavorable result with regard to the marker at the designated early time point. In the tables below, this is the ratio of the number of subjects with unfavorable marker results (no early drop or no normalization) to the total subjects with no 48 week PR.
# (§4) Positive predictive value is defined as the probability that a subject showing a favorable result with respect to the marker at an earlier time point would show PR at 48 weeks. In the tables below, this is the ratio of the number of subjects with favorable marker results who have 48 week PR to those with favorable marker results (early reduction or yes column).
# (§5) Negative predictive value is defined as the probability that a subject showing an unfavorable result with respect to the marker at an earlier time point would not show PR at 48 weeks. In the tables below, this is the ratio of the number of subjects with unfavorable marker results who have no PR at 48 weeks to the total subjects with unfavorable marker results (no early reduction or no column).
# (§6) Another criterion for effectiveness is normalization of C3 and/or C4 concentration in blood. The normal concentration of C3 is 90 mg/dl or greater and for C4 16 mg/dl or greater.
# lupus nephritis [2] = experiment: Low dosage protocol (15.8 mg or 7.9 mg BID)
# lupus nephritis [3] = experiment: Predictability of week 48 partial remission from early C4 normalization (Table 11)
# Excerpt: as §1, §2, §3, §4, §5, §6
# lupus nephritis [4] = experiment: Pharmacodynamic dosing (eGFR-based dose reduction): CR/PR in patients with and without dose reduction
# Procedure: To determine the efficacy of the pharmacodynamic protocol wherein dosage is reduced or stopped according to the presence or absence of indicators of the decrease in eGFR experienced as a side effect, these three groups of patients were assessed after 24 weeks and 48 weeks of treatment with respect to whether treatment was altered according to the invention protocol.
# In this study, CR was defined as a composite of UPCR ≤0.5 mg/mg; eGFR >60 mL/min/1.73 m^2 or within 20% of baseline, steroids at ≤10 mg/day and no administration of rescue medication. PR is defined as UPCR reduction of 50% from baseline and no use of rescue medication.
# lupus nephritis [5] = experiment: 48 week study of LN treatment: complete and partial remission; settings: for patients showing complete remission (CR) / patients showing partial remission (PR): 24 weeks
# Procedure: The study was conducted over a period of 48 weeks and safety was evaluated at 24 weeks.
# Subjects were screened prior to admission to the study by (a) determining that the urine protein creatinine ratio (UPCR) as >1.5 mg/mg as measured by first morning void, and (b) that the eGFR as measured by Chronic Kidney Disease Epidemiology Collaboration equation (CKD-EP1) of >45 ml/min/1.73 m^2. Subjects were assessed after 24 weeks and 48 weeks as well as a subsequent evaluation at 50 weeks.
# PR is a composite end-point that includes safety and efficacy: UPCR reduction of 50% from baseline and no use of rescue medication
# lupus nephritis [6] = experiment: Probability of attaining CR by proteinuria depending on UPCR reduction of 25% at 8 weeks (Tables 9a, 9b)
# [7] = 24 weeks, High Dose (39.5 mg BID)
# [8] = 24 weeks, Low Dose (23.7 mg BID)
# [9] = 48 weeks, High Dose (39.5 mg BID)
# [10] = 48 weeks, Low Dose (23.7 mg BID)
# [11] = patients with dose reductions (pharmacodynamically dosed), High Dose (39.5 mg BID)
# [12] = patients with dose reductions (pharmacodynamically dosed), Low Dose (23.7 mg BID)
# [13] = patients with no dose reductions, High Dose (39.5 mg BID)
# [14] = patients with no dose reductions, Low Dose (23.7 mg BID)
# [15] = high dosage 39.5 mg BID with MMF and corticosteroids
# [16] = low dosage 23.7 mg BID with MMF and corticosteroids
smiles,measurement,setting,value
C=C/C=C/C[C@@H](C)[C@@H](O)[C@H]1C(=O)N[C@@H](CC)C(=O)N(C)CC(=O)N(C)[C@@H](CC(C)C)C(=O)N[C@@H](C(C)C)C(=O)N(C)[C@@H](CC(C)C)C(=O)N[C@@H](C)C(=O)N[C@H](C)C(=O)N(C)[C@@H](CC(C)C)C(=O)N(C)[C@@H](CC(C)C)C(=O)N(C)[C@@H](C(C)C)C(=O)N1C [voclosporin],No Week 48 Partial Remission No Normalization,"lupus nephritis [1]; week 12, 23.7 mg BID",10
same,No Week 48 Partial Remission Normalization,"lupus nephritis [1]; week 12, 23.7 mg BID",8
same,Normalization Yes,"lupus nephritis [1]; week 12, 23.7 mg BID",31
same,No Week 48 Partial Remission No Normalization,"lupus nephritis [1]; week 12, 39.5 mg BID",10
same,No Week 48 Partial Remission Normalization,"lupus nephritis [1]; week 12, 39.5 mg BID",7
same,No Week 48 Partial Remission No Normalization,"lupus nephritis [1]; week 24, 23.7 mg BID",8
same,Normalization Yes,"lupus nephritis [1]; week 24, 23.7 mg BID",30
same,Week 48 Partial Remission No Normalization,"lupus nephritis [1]; week 24, 23.7 mg BID",33
same,No Week 48 Partial Remission No Normalization,"lupus nephritis [1]; week 48, 23.7 mg BID",8
same,No Week 48 Partial Remission Normalization,"lupus nephritis [1]; week 48, 23.7 mg BID",2
same,Normalization Yes,"lupus nephritis [1]; week 48, 23.7 mg BID",27
same,No Week 48 Partial Remission No Normalization,"lupus nephritis [1]; week 48, 39.5 mg BID",9
same,No Week 48 Partial Remission Normalization,"lupus nephritis [1]; week 48, 39.5 mg BID",7
same,remission at reduced dosage,lupus nephritis [2]; dosage lowered to 7.9 mg BID quite early in the treatment,Substantial numbers of subjects showed complete or partial remission
same,remission at reduced dosage,lupus nephritis [2]; dosage reduced almost immediately to 15.8 mg BID,a substantial portion of subjects showed substantial remission
same,No Week 48 Partial Remission No Normalization,"lupus nephritis [3]; week 12, 23.7 mg BID",8
same,No Week 48 Partial Remission Normalization,"lupus nephritis [3]; week 12, 23.7 mg BID",10
same,No Week 48 Partial Remission No Normalization,"lupus nephritis [3]; week 12, 39.5 mg BID",9
same,No Week 48 Partial Remission Normalization,"lupus nephritis [3]; week 12, 39.5 mg BID",8
same,Normalization No,"lupus nephritis [3]; week 12, 39.5 mg BID",31
same,Normalization Yes,"lupus nephritis [3]; week 12, 39.5 mg BID",48
same,No Week 48 Partial Remission Normalization,"lupus nephritis [3]; week 24, 23.7 mg BID",8
same,Normalization No,"lupus nephritis [3]; week 24, 23.7 mg BID",31
same,Week 48 Partial Remission Normalization,"lupus nephritis [3]; week 24, 23.7 mg BID",32
same,Normalization No,"lupus nephritis [3]; week 48, 23.7 mg BID",31
same,Week 48 Partial Remission Normalization,"lupus nephritis [3]; week 48, 23.7 mg BID",29
same,No Week 48 Partial Remission No Normalization,"lupus nephritis [3]; week 48, 39.5 mg BID",11
same,Patients with Dose Reduction,lupus nephritis [4]; [7],47 (53.4) n(%)
same,Patients with no Dose Reduction,lupus nephritis [4]; [7],41 (46.6) n(%)
same,Patients with Dose Reduction,lupus nephritis [4]; [8],39 (43.8) n(%)
same,Patients with no Dose Reduction,lupus nephritis [4]; [8],50 (56.2) n(%)
same,Patients with Dose Reduction,lupus nephritis [4]; [9],53 (60.2) n(%)
same,Patients with no Dose Reduction,lupus nephritis [4]; [9],35 (39.8) n(%)
same,Patients with Dose Reduction,lupus nephritis [4]; [10],46 (51.7) n(%)
same,Patients with no Dose Reduction,lupus nephritis [4]; [10],43 (48.3) n(%)
same,Patients with CR at 24 weeks,lupus nephritis [4]; [11],13 (27.7) n(%)
same,Patients with CR at 48 weeks,lupus nephritis [4]; [11],24 (45.3) n(%)
same,Patients with PR at 24 weeks,lupus nephritis [4]; [11],34 (72.3) n(%)
same,Patients with PR at 48 weeks,lupus nephritis [4]; [11],41 (77.4) n(%)
same,Patients with CR at 24 weeks,lupus nephritis [4]; [12],14 (35.9) n(%)
same,Patients with CR at 48 weeks,lupus nephritis [4]; [12],24 (52.2) n(%)
same,Patients with PR at 24 weeks,lupus nephritis [4]; [12],28 (71.8) n(%)
same,Patients with PR at 48 weeks,lupus nephritis [4]; [12],35 (76.1) n(%)
same,Patients with CR at 24 weeks,lupus nephritis [4]; [13],11 (26.8) n(%)
same,Patients with CR at 48 weeks,lupus nephritis [4]; [13],11 (31.4) n(%)
same,Patients with PR at 24 weeks,lupus nephritis [4]; [13],24 (58.5) n(%)
same,Patients with PR at 48 weeks,lupus nephritis [4]; [13],22 (62.9) n(%)
same,Patients with CR at 24 weeks,lupus nephritis [4]; [14],15 (30.0) n(%)
same,Patients with CR at 48 weeks,lupus nephritis [4]; [14],20 (46.5) n(%)
same,Patients with PR at 24 weeks,lupus nephritis [4]; [14],34 (68.0) n(%)
same,Patients with PR at 48 weeks,lupus nephritis [4]; [14],26 (60.5) n(%)
same,patients showing complete remission (CR),lupus nephritis [5]; [15],27%
same,patients showing partial remission (PR),lupus nephritis [5]; [15],66%
same,patients showing complete remission (CR),lupus nephritis [5]; [16],32.6%
same,patients showing partial remission (PR),lupus nephritis [5]; [16],70%
same,subjects showing complete remission (CR),"lupus nephritis [5]; 48 weeks, low dosage 23.7 mg BID with MMF and corticosteroids",49%
same,# of patients without UPCR reduction of ≥25% at 8 weeks,lupus nephritis [6]; High Dose (39.5 mg BID),12
same,# of CRs by Proteinuria at 24 weeks,lupus nephritis [6]; Low Dose (23.7 mg BID),29
same,# of patients with UPCR reduction of ≥25% at 8 weeks,lupus nephritis [6]; Low Dose (23.7 mg BID),64
same,# of patients without UPCR reduction of ≥25% at 8 weeks,lupus nephritis [6]; Low Dose (23.7 mg BID),16
